Assay results taken from patent publication US11412737B2, “Mixtures of beflubutamid or optically enriched forms thereof with a second herbicide” (FMC Corporation, priority 2016, dated 2022).

Assays:
Yellow foxtail (SETLU) = assay: pre-emergence test, weed control; format: in vivo; details: pre-emergent, 28 DAT, (−)-BFL >95% e.e., rate g ai/ha by row: r6 62, r7 125, r8 125, r9 250, r10 445, r11 890, r12 45, r13 90, r14 62+125, r15 125+125, r16 62+250, r17 125+250, r18 62+445, r19 125+445, r20 62+890, r21 125+890, r22 62+45, r23 125+45, r24 62+90, r25 125+90
In short: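 Seeds sown in top-soil flats and watered, then sprayed pre-emergence at 30 gallons per acre from a nozzle 10.5 inches above soil; flats kept in the greenhouse with regular watering and fertilizing. Percent control (0–100 scale versus untreated flats) scored at 21 DAT for wheat and 28 DAT for all species, averaged over replicates.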

Palmer amaranth (AMAPA) = assay: pre-emergence test, weed control; format: in vivo, Amaranthus palmeri; details: pre-emergent, 28 DAT; for percentage of weed control, AMAPA: (−)-BFL >95% e.e., rate g ai/ha by row: r6 62, r7 125, r8 125, r9 250, r10 445, r11 890, r12 45, r13 90, r14 62+125, r15 125+125, r16 62+250, r17 125+250, r18 62+445, r19 125+445, r20 62+890, r21 125+890, r22 62+45, r23 125+45, r24 62+90, r25 125+90
Method: (§1) Test compositions containing the test compounds were diluted with water to provide the appropriate test rate concentrations.
For pre-emergence testing, four disposable fiber flats (6 inch by 10 inch) for each rate of application of each herbicide solution were filled with top soil, to which seeds of each species were planted in furrows made by a template pressed on the top of the soil. The furrows were covered with soil after planting the seed and were watered well before application of the test compounds.
Fiber flats designated for treatment were placed in a spray chamber having a static platform and a movable sprayer and the height of the spray nozzle was 10.5 inches above the soil level. Once the sprayer was calibrated using water for spray volume of 30 gallons per acre, flats were sprayed with sprayer at a speed to receive a coverage equivalent of 30 gallons per acre. The application rates are those shown in the Tables below for the individual herbicidal solutions and the herbicide compositions of this invention. The pre-emergence flats were immediately placed in the greenhouse and watered lightly after treatment. Thereafter they were regularly watered and fertilized for the duration of the test.
(§2) The control of weeds was evaluated in each experimental test at 21 for wheat and 28 days after treatment (DAT) for all species. Data were analyzed using Minitab software at 95% confidence interval. The results, shown as an average of the replications, were compared with results observed in untreated control flats in the same tests. Percent control was determined by a method similar to the 0 to 100 rating system disclosed in “Research Methods in Weed Science,” 2nd ed., B. Truelove, Ed.; Southern Weed Science Society; Auburn University, Auburn, Ala., 1977. The rating system is as follows in Table 1.

Common ragweed (AMBEL) = assay: post-emergence test, weed control; format: in vivo; details: post-emergent, 28 DAT, height 3-4 cm, rate g ai/ha by row: r7 94, r8 125, r9 188, r10 125, r11 250, r12 94+125, r13 125+125, r14 188+125, r15 94+250, r16 125+250, r17 188+250
Large crabgrass (DIGSA) = assay: post-emergence test, weed control; format: in vivo; details: post-emergent, 28 DAT; for percentage of weed control, DIGSA: height 3-5 cm, rate g ai/ha by row: r25 94, r26 125, r27 188, r28 125, r29 250, r30 94+125, r31 125+125, r32 188+125, r33 94+250, r34 125+250, r35 188+250
Rice flatsedge (CYPIR) = assay: post-emergence test, weed control; format: in vivo; details: post-emergent, 28 DAT, height 1-2 cm; rate g ai/ha by row: r25 94, r26 125, r27 188, r28 125, r29 250, r30 94+125, r31 125+125, r32 188+125, r33 94+250, r34 125+250, r35 188+250
Wild oat (AVEFA) = assay: post-emergence test, weed control; format: in vivo, Avena fatua; details: post-emergent, 28 DAT; for percentage of weed control, AVEFA: height 11 cm, rate g ai/ha by row: r25 94, r26 125, r27 188, r28 125, r29 250, r30 94+125, r31 125+125, r32 188+125, r33 94+250, r34 125+250, r35 188+250; for control of wild oats (AVEFA): DCI at 250 g/ha, combination of both
Method: as §1
For post-emergence testing, seeds of each species for each rate of application of each herbicide solution were planted in 7.5 cm×7.5 cm plastic pots filled with potting soil. The seeds were germinated and the resulting plants were allowed to grow in a greenhouse until they reached a growth stage, such as height, suitable for testing. Treatments were applied using compressed air in a track spray chamber at 30 gallons/acre (280 L/ha) using a TeeJet 8001E nozzle at 40 psi (2.76 bars). Pots of post-emergent treated plants were returned to the greenhouse and not watered for 24 hours after treatment. Thereafter they were regularly watered and fertilized for the duration of the test.
as §2

Silky windgrass (APSEV) = assay: post-emergence test, weed control; format: in vivo; details: post-emergent, 28 DAT, height 1-1.5 cm, rate g ai/ha by row: r25 94, r26 125, r27 188, r28 125, r29 250, r30 94+125, r31 125+125, r32 188+125, r33 94+250, r34 125+250, r35 188+250

CC1(C)CON(Cc2ccc(Cl)cc2Cl)C1=O [DCI, 2-(2,4-dichlorophenyl)methyl-4,4-dimethyl-3-isoxazolidinone]
percentage of weed control, SETLU (Yellow foxtail (SETLU); 125 g ai/ha): 75%
percentage of weed control, SETLU (Yellow foxtail (SETLU); 250 g ai/ha): 96%
percentage of weed control, AMAPA (Palmer amaranth (AMAPA); 125 g ai/ha): 94%
percentage of weed control, AMAPA (Palmer amaranth (AMAPA); 250 g ai/ha): 99%
control of Palmer amaranth (AMAPA) (Palmer amaranth (AMAPA); BFL at 125 g/ha, DCI at 125 g/ha, combination of both): 30%
percentage of weed control, AMBEL (Common ragweed (AMBEL); 125 g ai/ha): 73%
percentage of weed control, AMBEL (Common ragweed (AMBEL); 250 g ai/ha): 77%
percentage of weed control, DIGSA (Large crabgrass (DIGSA); 125 g ai/ha): 17%
percentage of weed control, DIGSA (Large crabgrass (DIGSA); 250 g ai/ha): 22%
control of large crabgrass (DIGSA) (Large crabgrass (DIGSA); BFL at 188 g/ha, DCI at 125 g/ha, combination of both): 17%
percentage of weed control, CYPIR (Rice flatsedge (CYPIR)): 0%
percentage of weed control, AVEFA (Wild oat (AVEFA); 125 g ai/ha): 60%
percentage of weed control, AVEFA (Wild oat (AVEFA); 250 g ai/ha): 61%
control of wild oats (AVEFA) (Wild oat (AVEFA); BFL at 125 g/ha): 61%
control of wild oats (AVEFA) (Wild oat (AVEFA); BFL at 188 g/ha): 61%
percentage of weed control, APSEV (Silky windgrass (APSEV); 125 g ai/ha): 5%
percentage of weed control, APSEV (Silky windgrass (APSEV); 250 g ai/ha): 0%
